Test results from ChEMBL document CHEMBL1833873, “Design and synthesis of C35-fluorinated solamins and their growth inhibitory activities against human cancer cell lines” (2011).

Legend:
Type in all cases: functional
[1] = test system: MDA-MB-231; experiment: Cytotoxicity against human MDA-MB-231 cells after 48 hrs by sulforhodamine B assay; conditions: MDA-MB-231, 48 h
[2] = test system: DU-145; experiment: Cytotoxicity against human DU145 cells after 48 hrs by sulforhodamine B assay; conditions: DU-145, 48 h
[3] = Cytotoxicity against human MKN1 cells after 48 hrs by sulforhodamine B assay; conditions: MKN-1, 48 h
[4] = test system: NCI-H23; experiment: Cytotoxicity against human NCI-H23 cells after 48 hrs by sulforhodamine B assay; conditions: NCI-H23, 48 h
[5] = test system: NCI-H226; experiment: Cytotoxicity against human NCI-H226 cells after 48 hrs by sulforhodamine B assay; conditions: NCI-H226, 48 h
[6] = test system: SF-539; experiment: Cytotoxicity against human SF539 cells after 48 hrs by sulforhodamine B assay; conditions: SF-539, 48 h
[7] = test system: MKN-7; experiment: Cytotoxicity against human MKN7 cells after 48 hrs by sulforhodamine B assay; conditions: MKN-7, 48 h
[8] = test system: OVCAR-3; experiment: Cytotoxicity against human OVCAR3 cells after 48 hrs by sulforhodamine B assay; conditions: OVCAR-3, 48 h
[9] = test system: SF-268; experiment: Cytotoxicity against human SF268 cells after 48 hrs by sulforhodamine B assay; conditions: SF-268, 48 h
[10] = test system: MCF7; experiment: Cytotoxicity against human MCF7 cells after 48 hrs by sulforhodamine B assay; conditions: MCF7, 48 h
[11] = test system: ACHN; experiment: Cytotoxicity against human ACHN cells after 48 hrs by sulforhodamine B assay
[12] = Cytotoxicity against human HBC5 cells after 48 hrs by sulforhodamine B assay; conditions: HBC5, 48 h
[13] = test system: LOX IMVI; experiment: Cytotoxicity against human LOXIMVI cells after 48 hrs by sulforhodamine B assay
[14] = test system: SK-OV-3; experiment: Cytotoxicity against human SKOV3 cells after 48 hrs by sulforhodamine B assay; conditions: SK-OV-3, 48 h
[15] = test system: St-4; experiment: Cytotoxicity against human St-4 cells after 48 hrs by sulforhodamine B assay; conditions: St-4, 48 h
[16] = test system: KM12; experiment: Cytotoxicity against human KM12 cells after 48 hrs by sulforhodamine B assay; conditions: KM12, 48 h
[17] = test system: NCI-H522; experiment: Cytotoxicity against human NCI-H522 cells after 48 hrs by sulforhodamine B assay; conditions: NCI-H522, 48 h
[18] = test system: HCT-116; experiment: Cytotoxicity against human HCT116 cells after 48 hrs by sulforhodamine B assay; conditions: HCT-116, 48 h
[19] = test system: PC-3; experiment: Cytotoxicity against human PC3 cells after 48 hrs by sulforhodamine B assay; conditions: PC-3, 48 h
[20] = test system: OVCAR-5; experiment: Cytotoxicity against human OVCAR5 cells after 48 hrs by sulforhodamine B assay; conditions: OVCAR-5, 48 h
[21] = test system: HCC 2998; experiment: Cytotoxicity against human HCC2998 cells after 48 hrs by sulforhodamine B assay; conditions: HCC 2998, 48 h
[22] = test system: MKN-74; experiment: Cytotoxicity against human MKN74 cells after 48 hrs by sulforhodamine B assay; conditions: MKN-74, 48 h
[23] = test system: SF-295; experiment: Cytotoxicity against human SF295 cells after 48 hrs by sulforhodamine B assay; conditions: SF-295, 48 h
[24] = test system: U-251; experiment: Cytotoxicity against human U251 cells after 48 hrs by sulforhodamine B assay; conditions: U-251, 48 h
[25] = Cytotoxicity against human HBC4 cells after 48 hrs by sulforhodamine B assay; conditions: HBC4, 48 h
[26] = test system: MKN-28; experiment: Cytotoxicity against human MKN28 cells after 48 hrs by sulforhodamine B assay; conditions: MKN-28, 48 h
[27] = test system: OVCAR-4; experiment: Cytotoxicity against human OVCAR4 cells after 48 hrs by sulforhodamine B assay; conditions: OVCAR-4, 48 h
[28] = Cytotoxicity against human BSY1 cells after 48 hrs by sulforhodamine B assay; conditions: BSY-1, 48 h
[29] = test system: DMS-273; experiment: Cytotoxicity against human DMS273 cells after 48 hrs by sulforhodamine B assay; conditions: DMS-273, 48 h
[30] = test system: DMS-114; experiment: Cytotoxicity against human DMS114 cells after 48 hrs by sulforhodamine B assay; conditions: DMS-114, 48 h
[31] = test system: SNB-78; experiment: Cytotoxicity against human SNB78 cells after 48 hrs by sulforhodamine B assay; conditions: SNB-78, 48 h
[32] = test system: A549; experiment: Cytotoxicity against human A549 cells after 48 hrs by sulforhodamine B assay; conditions: A549, 48 h
[33] = test system: SNB-75; experiment: Cytotoxicity against human SNB75 cells after 48 hrs by sulforhodamine B assay; conditions: SNB-75, 48 h
[34] = test system: HT-29; experiment: Cytotoxicity against human HT-29 cells after 48 hrs by sulforhodamine B assay; conditions: HT-29, 48 h
[35] = test system: NCI-H460; experiment: Cytotoxicity against human NCI-H460 cells after 48 hrs by sulforhodamine B assay; conditions: NCI-H460, 48 h
[36] = Cytotoxicity against human RXF631L cells after 48 hrs by sulforhodamine B assay; conditions: RXF 631, 48 h
[37] = test system: MKN-45; experiment: Cytotoxicity against human MKN45 cells after 48 hrs by sulforhodamine B assay; conditions: MKN-45, 48 h
[38] = test system: OVCAR-8; experiment: Cytotoxicity against human OVCAR8 cells after 48 hrs by sulforhodamine B assay; conditions: OVCAR-8, 48 h
[39] = test system: HCT-15; experiment: Cytotoxicity against human HCT15 cells after 48 hrs by sulforhodamine B assay; conditions: HCT-15, 48 h

SMILES | GI50 [1] | GI50 [2] | GI50 [3] | GI50 [4] | GI50 [5] | GI50 [6] | GI50 [7] | GI50 [8] | GI50 [9] | GI50 [10] | GI50 [11] | GI50 [12] | GI50 [13] | GI50 [14] | GI50 [15] | GI50 [16] | GI50 [17] | GI50 [18] | GI50 [19] | GI50 [20] | other results
CCCCCCCCCCCC[C@@H](O)[C@H]1CC[C@H]([C@H](O)CCCCCCCCCCCCC2=C[C@H](C(F)F)OC2=O)O1 | > 100 µM | > 100 µM | 67 µM | 75 µM | 63 µM | 79 µM | 19 µM | > 100 µM | > 100 µM | 61 µM | > 100 µM | 11 µM | 15 µM | > 100 µM | > 100 µM | > 100 µM | 24 µM | > 100 µM | 60 µM | > 100 µM | GI50 [21]: > 100 µM; GI50 [22]: 57 µM; GI50 [23]: 44 µM; GI50 [24]: > 100 µM; GI50 [25]: 32 µM; GI50 [26]: 96 µM; GI50 [27]: 87 µM; GI50 [28]: > 100 µM; GI50 [29]: 16 µM; GI50 [30]: 24 µM; GI50 [31]: > 100 µM; GI50 [32]: > 100 µM; GI50 [33]: > 100 µM; GI50 [34]: > 100 µM; GI50 [35]: > 100 µM; GI50 [36]: > 100 µM; GI50 [37]: > 100 µM; GI50 [38]: 85 µM; GI50 [39]: 82 µM
CCCCCCCCCCCC[C@@H](O)[C@H]1CC[C@H]([C@H](O)CCCCCCCCCCCCC2=C[C@H](C)OC2=O)O1 [REL-SOLAMIN] | > 100 µM | > 100 µM | > 100 µM | 73 µM | > 100 µM | > 100 µM | 13 µM | > 100 µM | > 100 µM | 71 µM | > 100 µM | > 100 µM | 29 µM | > 100 µM | > 100 µM | > 100 µM | 58 µM | > 100 µM | > 100 µM | > 100 µM | GI50 [21]: > 100 µM; GI50 [22]: > 100 µM; GI50 [23]: 40 µM; GI50 [24]: > 100 µM; GI50 [25]: > 100 µM; GI50 [26]: 14 µM; GI50 [27]: > 100 µM; GI50 [28]: > 100 µM; GI50 [29]: > 100 µM; GI50 [30]: 4.3 µM; GI50 [31]: > 100 µM; GI50 [32]: > 100 µM; GI50 [33]: > 100 µM; GI50 [34]: > 100 µM; GI50 [35]: > 100 µM; GI50 [36]: > 100 µM; GI50 [37]: > 100 µM; GI50 [38]: > 100 µM; GI50 [39]: > 100 µM
CCCCCCCCCCCC[C@@H](O)[C@H]1CC[C@H]([C@H](O)CCCCCCCCCCCCC2=C[C@H](C(F)(F)F)OC2=O)O1 | > 100 µM | > 100 µM | > 100 µM | > 100 µM | 88 µM | > 100 µM | 89 µM | > 100 µM | > 100 µM | 80 µM | > 100 µM | > 100 µM | > 100 µM | > 100 µM | > 100 µM | > 100 µM | 53 µM | > 100 µM | > 100 µM | > 100 µM | GI50 [21]: > 100 µM; GI50 [22]: > 100 µM; GI50 [23]: 72 µM; GI50 [24]: > 100 µM; GI50 [25]: > 100 µM; GI50 [26]: > 100 µM; GI50 [27]: > 100 µM; GI50 [28]: > 100 µM; GI50 [29]: > 100 µM; GI50 [30]: 52 µM; GI50 [31]: > 100 µM; GI50 [32]: > 100 µM; GI50 [33]: > 100 µM; GI50 [34]: > 100 µM; GI50 [35]: > 100 µM; GI50 [36]: > 100 µM; GI50 [37]: > 100 µM; GI50 [38]: > 100 µM; GI50 [39]: > 100 µM
CCCCCCCCCCCC[C@@H](O)[C@H]1CC[C@H]([C@H](O)CCCCCCCCCCCCC2=C[C@H](CF)OC2=O)O1 | 59 µM | > 100 µM | 58 µM | 12 µM | 51 µM | > 100 µM | 19 µM | > 100 µM | > 100 µM | 45 µM | > 100 µM | 32 µM | > 100 µM | > 100 µM | 37 µM | > 100 µM | 15 µM | 16 µM | 24 µM | > 100 µM | GI50 [21]: > 100 µM; GI50 [22]: 40 µM; GI50 [23]: 36 µM; GI50 [24]: > 100 µM; GI50 [25]: > 100 µM; GI50 [26]: 7.8 µM; GI50 [27]: > 100 µM; GI50 [28]: 60 µM; GI50 [29]: 48 µM; GI50 [30]: 6.9 µM; GI50 [31]: > 100 µM; GI50 [32]: 76 µM; GI50 [33]: 63 µM; GI50 [34]: 63 µM; GI50 [35]: 79 µM; GI50 [36]: > 100 µM; GI50 [37]: 76 µM; GI50 [38]: 16 µM; GI50 [39]: > 100 µM
